For the series, the system named is CCRIS mutagenicity, Ames/micronucleus/aberration tests. Briefly: CCRIS mutagenicity studies.
Setting [1] is: Test System: AMES SALMONELLA TYPHIMURIUM, Strain/Indicator: TA98, Metabolic Activation: NONE, Method: PREINCUBATION
[2] abbreviates: Test System: AMES SALMONELLA TYPHIMURIUM, Strain/Indicator: TA100, Metabolic Activation: NONE, Method: PREINCUBATION
[3] abbreviates: Test System: AMES SALMONELLA TYPHIMURIUM, Strain/Indicator: TA1535, Metabolic Activation: NONE, Method: PREINCUBATION

Each structure is given as a SMILES string. Calls of active or inactive are those of the source. How the calls were made is not given here.

With `N#CCc1ccc(Cl)cc1`, the mutagenic call reads like this: under setting [1], “inactive; negative”; (Test System: AMES SALMONELLA TYPHIMURIUM, Strain/Indicator: TA98, Metabolic Activation: RAT, LIVER, S-9, PHENOBARBITAL AND BETA-NAPHTHOFLAVONE, Method: PREINCUBATION) “inactive; negative”; under setting [2], “inactive; negative”; (Test System: AMES SALMONELLA TYPHIMURIUM, Strain/Indicator: TA100, Metabolic Activation: RAT, LIVER, S-9, PHENOBARBITAL AND BETA-NAPHTHOFLAVONE, Method: PREINCUBATION) “inactive; negative”; (Test System: AMES SALMONELLA TYPHIMURIUM, Strain/Indicator: TA102, Metabolic Activation: NONE, Method: PREINCUBATION) “inactive; negative”; (Test System: AMES SALMONELLA TYPHIMURIUM, Strain/Indicator: TA102, Metabolic Activation: RAT, LIVER, S-9, SODIUM PHENOBARBITAL AND 5,6-BENZOFLAVONE, Method: PREINCUBATION) “inactive; negative”. In addition, the mutagenic call by setting is: (Test System: AMES SALMONELLA TYPHIMURIUM, Strain/Indicator: TA104, Metabolic Activation: NONE, Method: PREINCUBATION) “inactive; negative”; (Test System: AMES SALMONELLA TYPHIMURIUM, Strain/Indicator: TA104, Metabolic Activation: RAT, LIVER, S-9, SODIUM PHENOBARBITAL AND 5,6-BENZOFLAVONE, Method: PREINCUBATION) “inactive; negative”; under setting [3], “inactive; negative”; (Test System: AMES SALMONELLA TYPHIMURIUM, Strain/Indicator: TA1535, Metabolic Activation: RAT, LIVER, S-9, PHENOBARBITAL AND BETA-NAPHTHOFLAVONE, Method: PREINCUBATION) “inactive; negative”; (Test System: AMES SALMONELLA TYPHIMURIUM, Strain/Indicator: TA1537, Metabolic Activation: NONE, Method: PREINCUBATION) “inactive; negative”; (Test System: AMES SALMONELLA TYPHIMURIUM, Strain/Indicator: TA1537, Metabolic Activation: RAT, LIVER, S-9, PHENOBARBITAL AND BETA-NAPHTHOFLAVONE, Method: PREINCUBATION) “inactive; negative”. Moreover, the mutagenic call (Test System: E. COLI, Strain/Indicator: WP2UVRA/PKM101, Metabolic Activation: NONE, Method: PREINCUBATION) is “inactive; negative”; the mutagenic call (Test System: E. COLI, Strain/Indicator: WP2UVRA/PKM101, Metabolic Activation: RAT, LIVER, S-9, PHENOBARBITAL AND BETA-NAPHTHOFLAVONE, Method: PREINCUBATION) was “inactive; negative”; the mutagenic call (Test System: E. COLI, Strain/Indicator: WP2UVRA, Metabolic Activation: NONE, Method: PREINCUBATION) is “inactive; negative”; the mutagenic call (Test System: E. COLI, Strain/Indicator: WP2UVRA, Metabolic Activation: RAT, LIVER, S-9, PHENOBARBITAL AND BETA-NAPHTHOFLAVONE, Method: PREINCUBATION) was “inactive; negative”.

For the compound `CCC(C)(C)C`, the mutagenic call (Test System: AMES SALMONELLA TYPHIMURIUM, Strain/Indicator: TA97, Metabolic Activation: HAMSTER, LIVER, S-9, AROCLOR 1254 (10 OR 30%), Method: PREINCUBATION) was “inactive; negative”; the mutagenic call (Test System: AMES SALMONELLA TYPHIMURIUM, Strain/Indicator: TA97, Metabolic Activation: NONE, Method: PREINCUBATION) was “inactive; negative”; the mutagenic call (Test System: AMES SALMONELLA TYPHIMURIUM, Strain/Indicator: TA97, Metabolic Activation: RAT, LIVER, S-9, AROCLOR 1254 (10 OR 30%), Method: PREINCUBATION) was “inactive; negative”; the mutagenic call (Test System: AMES SALMONELLA TYPHIMURIUM, Strain/Indicator: TA98, Metabolic Activation: HAMSTER, LIVER, S-9, AROCLOR 1254 (10%), Method: PREINCUBATION) is “inactive; negative”; the mutagenic call (Test System: AMES SALMONELLA TYPHIMURIUM, Strain/Indicator: TA98, Metabolic Activation: HAMSTER, LIVER, S-9, AROCLOR 1254 (30%), Method: DESICCATOR) was “inactive; negative”; the mutagenic call (Test System: AMES SALMONELLA TYPHIMURIUM, Strain/Indicator: TA98, Metabolic Activation: HAMSTER, LIVER, S-9, AROCLOR 1254 (30%), Method: PREINCUBATION) was “inactive; negative”. In addition, the mutagenic call (Test System: AMES SALMONELLA TYPHIMURIUM, Strain/Indicator: TA98, Metabolic Activation: NONE, Method: DESICCATOR) was “inactive; negative”; the mutagenic call under setting [1] was “inactive; negative”; the mutagenic call (Test System: AMES SALMONELLA TYPHIMURIUM, Strain/Indicator: TA98, Metabolic Activation: RAT, LIVER, S-9, AROCLOR 1254 (10%), Method: PREINCUBATION) is “inactive; negative”; the mutagenic call (Test System: AMES SALMONELLA TYPHIMURIUM, Strain/Indicator: TA98, Metabolic Activation: RAT, LIVER, S-9, AROCLOR 1254 (30%), Method: DESICCATOR) is “inactive; negative”; the mutagenic call (Test System: AMES SALMONELLA TYPHIMURIUM, Strain/Indicator: TA98, Metabolic Activation: RAT, LIVER, S-9, AROCLOR 1254 (30%), Method: PREINCUBATION) was “inactive; negative”; the mutagenic call (Test System: AMES SALMONELLA TYPHIMURIUM, Strain/Indicator: TA100, Metabolic Activation: HAMSTER, LIVER, S-9, AROCLOR 1254 (10%), Method: PREINCUBATION) was “inactive; negative”. For the same compound, the mutagenic call reads like this: (Test System: AMES SALMONELLA TYPHIMURIUM, Strain/Indicator: TA100, Metabolic Activation: HAMSTER, LIVER, S-9, AROCLOR 1254 (30%), Method: DESICCATOR) “inactive; negative”; (Test System: AMES SALMONELLA TYPHIMURIUM, Strain/Indicator: TA100, Metabolic Activation: HAMSTER, LIVER, S-9, AROCLOR 1254 (30%), Method: PREINCUBATION) “inactive; negative”; (Test System: AMES SALMONELLA TYPHIMURIUM, Strain/Indicator: TA100, Metabolic Activation: NONE, Method: DESICCATOR) “inactive; negative”; under setting [2], “inactive; negative”; (Test System: AMES SALMONELLA TYPHIMURIUM, Strain/Indicator: TA100, Metabolic Activation: RAT, LIVER, S-9, AROCLOR 1254 (10%), Method: PREINCUBATION) “inactive; negative”; (Test System: AMES SALMONELLA TYPHIMURIUM, Strain/Indicator: TA100, Metabolic Activation: RAT, LIVER, S-9, AROCLOR 1254 (30%), Method: DESICCATOR) “inactive; negative”. For the same compound, the mutagenic call runs as follows: (Test System: AMES SALMONELLA TYPHIMURIUM, Strain/Indicator: TA100, Metabolic Activation: RAT, LIVER, S-9, AROCLOR 1254 (30%), Method: PREINCUBATION) “inactive; negative”; (Test System: AMES SALMONELLA TYPHIMURIUM, Strain/Indicator: TA1535, Metabolic Activation: HAMSTER, LIVER, S-9, AROCLOR 1254 (10 OR 30%), Method: PREINCUBATION) “inactive; negative”; under setting [3], “inactive; negative”; (Test System: AMES SALMONELLA TYPHIMURIUM, Strain/Indicator: TA1535, Metabolic Activation: RAT, LIVER, S-9, AROCLOR 1254 (10 OR 30%), Method: PREINCUBATION) “inactive; negative”.

In the case of `CC(=O)C(=O)c1ccccc1`, the mutagenic call (Test System: AMES SALMONELLA TYPHIMURIUM, Strain/Indicator: TA100, Metabolic Activation: NONE, Method: STANDARD PLATE) was “inactive; negative”.

Turning to `COc1cc(N=Nc2ncc([N+](=O)[O-])s2)c(NC(C)=O)cc1N(CCOC(=O)OCC(C)C)CCOC(=O)OCC(C)C`, the mutagenic call (End Point: IN VITRO CHROMOSOMAL ABERRATIONS, Test System: CHL CELLS, Metabolic Activation: RAT, LIVER, S-9, SODIUM PHENOBARBITAL AND 5,6-BENZOFLAVONE) is “active; positive (ploidy changes)”.

With `CN(N=O)C(=O)Oc1cccc2c1OC(C)(C)C2`, the mutagenic call (End Point: IN VIVO MICRONUCLEUS, Test System: BONE MARROW POLYCHROMATIC ERYTHROCYTES, Species: MOUSE, Strain/Sex: KM/MALE, FEMALE, Route: IP INJECTION) was “active; positive”.

(Values after PubChem BioAssay AID1259407 (Chemical Carcinogenesis Research Information System (CCRIS), 2018).)
